Laboratory results reported in patent EP4494632A1, “LIPOPHILIC-BASED COMPOSITION” (Consejo Superior de Investigaciones Científicas (CSIC), priority 2023, dated 2025).
Like-named read-outs stand apart in the source and are kept apart here.

Legend:
[1] = Kinetic permeation of biocides using vertical Franz diffusion cells
Experimental: (§1) As in the previous TEWL study, sublingual mucosa and porcine skin dermatomized to a thickness of 500-700 µm are used. Kinetic diffusion studies were performed using a vertical diffusion cell (Lara Spiral, Couternon, France (1.86 cm^2 and 3 ml). The receiver fluid (RF) used was PBS:EtOH (1:1). A water bath was set at 43°C to obtain a membrane surface temperature of 32 ± 1°C.
(§2) Subsequently, the drugs are deposited to determine their kinetics. To that end, 300 µl (infinite dose) of the 1% solution of the 4 drugs in methanol were applied to each Franz cell, in triplicate. Aliquots of 0.2 ml were collected at different times (30 min, 1 h, 2 h, 4 h). The active ingredients were diluted in suitable graduated flasks and filtered through a 0.22 µm nylon filter (Cameo, Sigma-Aldrich, St Louis, U. S.A.). They were then further analyzed with a high performance liquid chromatography diode array detector (HPLC-DAD).
(§3) The equation is as follows (1): Qn = (Cn × Vc + ∑i = 1^(n−1) (Ci×Vs))/(A) [formula]
(§4) Wherein: Qn is the cumulative amount of active ingredient released at time n (µg/cm^2); Cn is the concentration of active ingredient in the sample (µg/ml); Vc is the volume of the vertical diffusion cell (7 ml); ∑i = 1^(n−1) Ci [formula] is the sum of the API concentrations (µg/ml) determined at sampling intervals 1 to n-1; Vs is the volume of the sample, and A is the surface area of the sample (1.77 cm^2).
(§5) Two parameters were used, Qn and % API release, to obtain graphs showing absorption and penetration kinetics (Y-axis). Time or its square root (√t) is indicated on the X-axis. […] This step allowed determining the best absorption model to represent the penetration kinetics of the API through the different membranes. The model was obtained with the non-linear regression software STATGRAPHICS plus 5 (Statgraphics Technologies, Inc., Virginia, U. S.A.), and the best equation was selected based on the highest correlation coefficient corrected by the number of degrees of freedom (R2 DoF). Once having defined the model, it was possible to calculate other parameters, such as the flow (J), permeability coefficient (Kp), delay time (TI), maximum concentration (Cmax), maximum time (tmax), and area under the curve (AUC). All results are expressed as mean ± standard deviation (SD).
(§6) Furthermore, porcine skin permeation is studied. As mentioned in the introduction, the barrier structure of the skin differs greatly from that of the mucosae.
(§7) The biocides evaluated were fungitrol (FUN), propiconazole (PRO), and permethrin (PER) dissolved in ethanol at a concentration of 1% for each active ingredient. […] Table 9. Biocides and their physicochemical properties.
(§8) Table 10. Conditions of the method which are used in HPLC/DAD analysis for fungitrol, propiconazole, and permethrin

[2] = cited from earlier work
[3] = Kinetic permeation of biocides using vertical Franz diffusion cells; remark: listed apart in the source
Experimental: as §1, §2, §3, §4, §5, §6, §7, §8

in vitro [4] = experiment: in vitro
From the text: (§9) Furthermore, porcine skin permeation is studied. As mentioned in the introduction, the barrier structure of the skin differs greatly from that of the mucosae. In this sense, it will be evaluated whether the mucosae modified both by lipophilic compositions and by compositions that mimic the stratum corneum could have a barrier effect similar to that of the skin.
(§10) Next, the main physicochemical properties which are important in permeability through keratin tissues, such as the skin and mucosae, and the classification to which they belong are described in detail. […] Compounds to be evaluated, physicochemical properties, and classification.
as §1, §2
(§11) The software used was OpenLab. […] The ICH guidelines were followed to obtain the calibration curve, the limit of quantification (LoQ), and the limit of detection (LoD). The HPLC-DAD analytical conditions and the method for the four active ingredients are described in detail in Table 4.
as §3, §4, §5

[5] = BCS group; cited from earlier work
in vitro [6] = conditions: for Permea. coeff., Kp / Cmax at 1 %: pig; for Cmax at 1 %: Conc. Max.
From the text: as §9, §10, §1
After 1 h, the TEWL is measured again (Table 3). Table 3. Application of the composition F-MI and evaluation of transepidermal water loss, from the skin, from porcine sublingual mucosa and from the same mucosa modified by applying composition F-MI before applying the drugs.
as §2, §11, §3, §4, §5

[7] = sublingual mucosa with F-MI, 1% in ethanol
[8] = unmodified sublingual mucosa, 1% in ethanol
[9] = skin, 300 µl of 1% solution in methanol

| SMILES | Flow, J [1, 7] [µg/cm^2/h] | Latency time, LT [1, 7] [h] | Permea. coeff., Kp [1, 7] | Flow, J [1, 8] [µg/cm^2/h] | Latency time, LT [1, 8] [h] | LogP (pH 7.4) ([2]; biocides, Table 9, PubChem) | Flow, J ([3]; skin, 1% in ethanol) [µg/cm^2/h] | Latency time, LT ([3]; skin, 1% in ethanol) [h] | Group [5] | Area under the curve, AUC (in vitro [4]) [mg/cm^2] | Flow, J (in vitro [4]; pig, 1 %) | Latency time, LT (in vitro [4]; pig, 1 %) | further results |
| --- | --- | --- | --- | --- | --- | --- | --- | --- | --- | --- | --- | --- | --- |
| CCCC1COC(Cn2cncn2)(c2ccc(Cl)cc2Cl)O1 (centres unmarked) [Propiconazole (PRO), Propiconazole] | 6.62±3.74 | 1.66 ± 1.00 | 0.70±0.39 10^-3cm/h | 63.92±44.92 | -0.04 ± 1.68 | 3.7 | 2.26±1.48 | 0.60 ± 0.015 | – | – | – | – | Permea. coeff., Kp [1, 8]: 6.80±4.78 10^-3cm/h; Permea. coeff., Kp ([3]; pig): 0.24±0.16 10^-3cm/h |
| CC[C@H](C)[C@H]1O[C@]2(CC[C@@H]1C)C[C@@H]1C[C@@H](C/C=C(\C)[C@@H](O[C@H]3C[C@H](OC)[C@@H](O[C@H]4C[C@H](OC)[C@@H](O)[C@H](C)O4)[C@H](C)O3)[C@@H](C)/C=C/C=C3\CO[C@@H]4[C@H](O)C(C)=C[C@@H](C(=O)O1)[C@]34O)O2 [Ivermectin (IVE), Ivermectin] | – | – | – | – | – | – | – | – | 4 | – | – | – | Flow, J (in vitro [4]; [9]): 3.13±0.86 µg/cm^2/h; Latency time, LT (in vitro [4]; [9]): 0.59 ± 0.28 h; LogP (pH 7.4) ([2]; drugs, Table 2): 5.83; permeability through the unmodified mucosa compared to the skin (in vitro [6]): 20 times; Latency time, LT (in vitro [6]; sublingual mucosa with F-MI (70 µl deposited 1 h before), 1% solution in methanol): 0.28 ± 0.02 h; Flow, J (in vitro [6]; unmodified sublingual mucosa, 1% solution in methanol): 63.75±1.57 µg/cm^2/h |
| Cn1c(=O)c2c(ncn2C)n(C)c1=O [Caffeine (CAF), Caffeine] | – | – | – | – | – | – | – | – | 1 | 0.41±0.27 | 75.09±51.32 µg/cm^2/h | 0.65 ± 0.24 h | Conc. Max., Cmax (in vitro [4]): 107.23±57.7 3 µg/ml; Permea. coeff., Kp (in vitro [4]; pig): 6.06±4.12 10^-3cm/h; Permea. coeff., Kp (in vitro [6]): 34.55±6.56 10^-3cm/h; Permea. coeff., Kp (in vitro [6]; 1 h): 8.28±2.48 10^-3cm/h |
| CC1(C)C(C=C(Cl)Cl)C1C(=O)OCc1cccc(Oc2ccccc2)c1 (centres unmarked) [Permethrin (PER), Permethrin] | 3.85±4.00 | -0.28 ± 1.77 | 0.26±0.27 10^-3cm/h | 58.67±45.51 | -0.53 ± 1.14 | 6.5 | 2.93±0.23 | -1.49 ± 0.66 | – | – | – | – | Cmax at 1 % ([1]; pig): 15700 ± 20300 ng/mL; Permea. coeff., Kp ([1]; pig): 4.02±3.12 10^-3cm/h; Cmax at 1 % ([3]; pig): 9350 ± 110 ng/mL; Permea. coeff., Kp ([3]; pig): 0.20±0.015 10^-3cm/h |
| CC(C)Cc1ccc(C(C)C(=O)O)cc1 (centres unmarked) [Ibuprofen (IBU), Ibuprofen] | – | – | – | – | – | – | – | – | 2 | 0.10 ± 0.01 | 24.79 ± 2.75 µg/cm^2/h | -0.24 ± 0.19 h | Cmax at 1 % (in vitro [4]; pig): 21900 ± 1980 ng/mL; Permea. coeff., Kp (in vitro [4]; pig): 2.05 ± 0.23 10^-3cm/h; Permea. coeff., Kp (in vitro [6]): 28.67±0.49 10^-3cm/h; Permea. coeff., Kp (in vitro [6]; 1 h): 41.18±4.09 10^-3cm/h; Cmax at 1 % (in vitro [6]): 341000 ± 63600 ng/mL |
| C[C@@H]1C[C@H]2[C@@H]3CCC4=CC(=O)C=C[C@]4(C)[C@@]3(F)[C@@H](O)C[C@]2(C)[C@@]1(O)C(=O)CO [Dexamethasone (DEX), Dexamethasone] | – | – | – | – | – | – | – | – | – | 0.03±0.01 | 5,84±3,46 µg/cm^2/h | 0,62±0,16 h | Cmax at 1 % (in vitro [4]; pig): 67400 ng/mL; LogP (pH 7.4) ([2]; drugs, Table 2): 1.74; Cmax at 1 % (in vitro [6]): 315000 ng/mL |
| CCCCNC(=O)OCC#CI [Fungitrol (FUN), 3-lodo-2-propynyl butylcarbamate] | 5.59±1.32 | 0.65 ± 0.08 | 0.61±0.14 10^-3cm/h | 62.88±29.97 | -0.34 ± 1.32 | 2.4 | 6.02±3.93 | 0.70 ± 0.00 | – | – | – | – | Permea. coeff., Kp [1, 8]: 6.80±3.26 10^-3cm/h; Permea. coeff., Kp ([3]; skin, 1% in ethanol): 1.00±0.40 10^-3cm/h |
